Data set [1] relates to U251. Briefly: Anti-cancer screen (MTT), U251. The format is cell-based. Conditions: Homo sapiens, U-251, 48 hours. The protocol:
(§1) Experimental drugs are screened for anti-cancer activity in three cell lines for their GI50, TGI and LC50 values (using five concentrations for each compound). The cell lines are maintained in DMEM containing 10% fetal bovine serum. 96 well microtiter plates are inoculated with cells in 100 μL for 24 h at 37° C., 5% CO2, 95% air and 100% relative humidity. 5000 HCT116 cells/well, 5000 NCIH460 cells/well, 10000 U251 cells/well and 5000 MDAMB231 cells/well are plated. A separate plate with these cell lines is also inoculated to determine cell viability before the addition of the compounds (T0).
(§2) Following 24 hours incubation, experimental drugs are added to the 96 well plates. Each plate contains one of the above cell lines and the following in triplicate: five different concentrations (0.01, 0.1, 1, 10 and 100 μM) of four different compounds, appropriate dilutions of a cytotoxic standard and control (untreated) wells. Compounds are dissolved in dimethylsulfoxide (DMSO) to make 20 mM stock solutions on the day of drug addition and frozen at −20° C. Serial dilutions of these 20 mM stock solutions are made in complete growth medium such that 100 μL of these drug solutions in medium, of final concentrations equaling 0.01, 0.1, 1, 10 and 100 μM can be added to the cells in triplicate. Standard drugs whose anti-cancer activity has been well documented and which are regularly used are doxorubicin and SAHA.
(§3) Cells are incubated with compounds for 48 hours followed by the addition of 10 μL 3-(4,5-Dimethyl-2-thiazolyl)-2,5-diphenyl-2H-tetrazolium (MTT) solution per well and a subsequent incubation at 37° C., 5% CO2, 95% air and 100% relative humidity, protected from light. After 4 hours, well contents are aspirated carefully followed by addition of 150 μL DMSO per well. Plates are agitated to ensure solution of the formazan crystals in dimethylsulphoxide and absorbance read at 570 nm.
(§4) Percent growth is calculated for each compound's concentration relative to the control and zero measurement wells (To; viability right before compound addition). If a test well's O.D. value is greater than the To measurement for that cell line % Growth=(test−zero)/(control−zero)×100
(§5) If a test well's O.D. value is lower than the T0 measurement for that cell line, […]

Data set [2] deals with NCI-H460. Put plainly: Anti-cancer screen (MTT), NCI-H460. The format is cell-based. To be noted: Homo sapiens, NCI-H460; 48 hours, MTT. The protocol: as §1
Following 24 hours incubation, experimental drugs are added to the 96 well plates. […] Compounds are dissolved in dimethylsulfoxide (DMSO) to make 20 mM stock solutions on the day of drug addition and frozen at −20° C. […] Standard drugs whose anti-cancer activity has been well documented and which are regularly used are doxorubicin and SAHA.
as §3, §4, §5

Data set [3] concerns IL-6. Put plainly: In vitro measurement of IL-6 in human PBMC. Conditions: LPS; for inhibition at 10 µM: Conc. 10 μM. The format is cell-based. The procedure:
(§6) In vitro Measurement of Interleukin-6 (IL-6) & Interleukin-1β (IL1β)
(§7) This assay determines the effect of test compounds on the production of IL-6 and IL1β in human PBMC (Physiol. Res. 52: 593-598, 2003). Compounds were tested for their ability to inhibit the activity of IL-6 and IL1β in human PBMC. PBMC were isolated from blood using BD Vacutainer CPT™ Cell preparation tube (BD Bio Science) and suspended in RPMI medium. The test compounds were preincubated with PBMC (0.5 million/incubation well) for 15 minutes at 37° C. and then stimulated with Lipopolysaccharide (Escherichia coli: B4; 1 μg/ml) for 18 hours at 37° C. in 5% CO2. The levels of IL-6 and IL1β in cell culture medium were estimated using enzyme linked Immunosorbent assay performed in a 96 well format as per the procedure of the manufacturer (R&D Systems, Inc. 614 McKinley Place Nebr., Minneapolis, Minn. 55413, USA).

For data set [4], the system named is IL-1β. Briefly: In vitro measurement of IL-1β in human PBMC. The format is cell-based. Conditions: LPS. The procedure: as §6, §7
The subject of data set [5] is HCT116. Put plainly: Anti-cancer screen (MTT), HCT116. The data set is classed as cell-based. To be noted: Homo sapiens, HCT-116, 48 hours. The protocol:
as §1, §2, §3, §4, §5

For data set [6], the system named is TNF-α. Briefly: In vitro measurement of TNF-α in human PBMC. The format is cell-based. To be noted: LPS. The procedure:
In Vitro Measurement of Tumor Necrosis Factor Alpha (TNF-α)
This assay determines the effect of test compounds on the production of TNF-α in human Peripheral Blood Mononuclear Cells (PBMC). Compounds were tested for their ability to inhibit the activity of TNF-α in human PBMC. PBMC were isolated from blood (from healthy volunteers) using BD Vacutainer CPT™ (Cell preparation tube, BD Bio Science) and suspended in RPMI medium (Physiol. Res. 52; 593-598, 2003). The test compounds were pre-incubated with PBMC (0.5 million/incubation well) for 15 minutes at 37° C. and then stimulated with Lipopolysaccharide (Escherichia coli: B4; 1 μg/ml) for 18 hours at 37° C. in 5% CO2. The levels of TNF-α in the cell culture medium were estimated using enzyme linked Immunosorbent assay performed in a 96 well format as per the procedure of the manufacturer (R&D Systems, Inc. 614 McKinley Place Nebr., Minneapolis, Minn. 55413, USA).

The values below come from patent US7759350B2, “Pyrimidine carboxamides” (Orchid Research Laboratories Ltd., priority 2005, dated 2010).

Each structure is given as a SMILES string.

Regarding `CSc1nc(-c2ccncc2)nc(NCCO)c1C(=O)Nc1ccc(Cl)cc1` [Example 47, N-(4-Chlorophenyl)-4-[(2-hydroxyethyl)amino]-6-(methylthio)-2-pyridin-4-ylpyrimidine-5-carboxamide], the GI50 in data set [1] was found to be 300 nM; in data set [2], 100 nM.

For `CSc1ccc(-c2nc(SC)c(C(=O)Nc3ccc(C)c(C)c3)c(N3CCNCC3)n2)cc1` [Example 42, N-(3,4-Dimethylphenyl)-6-(methylthio)-2-[4-(methylthio)phenyl]-4-piperazin-1-ylpyrimidine-5-carboxamide], the figures for the GI50 in data set [1], in data set [2] and in data set [5] were 5000 nM, 3000 nM and 4000 nM, respectively. Also, the inhibition at 10 µM in data set [3] turned out to be 92.2%. For the same compound, in data set [4] (Conc. 10 μM), the “IL-1β Inhibition (%)” value is “Not active”.

For `CNc1nc(-c2ccncc2)nc(SC)c1C(=O)Nc1ccc(C)cc1` [Example 24, 4-(Methylamino)-N-(4-methylphenyl)-6-(methylthio)-2-pyridin-4-ylpyrimidine-5-carboxamide], the GI50 in data set [2] was 4000 nM; in data set [5], 9900 nM.

Regarding `CCc1ccc(NC(=O)c2c(NC)nc(-c3ccc(S(N)(=O)=O)cc3)nc2NC)cc1` [Example 16, 2-[4-(Aminosulfonyl)phenyl]-4,6-bis(methylamino)-N-(4-ethylphenyl)pyrimidine-5-carboxamide], at 10 µM the inhibition in data set [6] (at 10 μM) was 53.1%.

As for `CNc1nc(-c2ccncc2)nc(SC)c1C(=O)Nc1ccc(C(C)C)cc1` [Example 34, N-(4-Isoproylphenyl)-4-(methylamino)-6-(methylthio)-2-pyridin-4-ylpyrimidine-5-carboxamide], the results for the GI50 in data set [2] and in data set [5] were 900 nM and 9000 nM, respectively.

Take `CNc1nc(-c2ccc(F)cc2)nc(SC)c1C(=O)Nc1ccc(SC)cc1` [Example 45, 2-(4-Fluorophenyl)-4-(methylamino)-6-(methylthio)-N-[4-(methylthio)phenyl]pyrimidine-5-carboxamide]: the GI50 came to 700 nM in data set [1] and 400 nM in data set [2].

Turning to `CNc1nc(-c2ccc(SC)cc2)nc(SC)c1C(=O)Nc1ccc(C)cc1C` [Example 39, N-(2,4-Dimethylphenyl)-4-(methylamino)-6-(methylthio)-2-[4-(methylthio)phenyl]pyrimidine-5-carboxamide], the results for the GI50 in data set [1] and in data set [2] were 90 nM and 2000 nM, respectively.

`CCCCc1ccc(NC(=O)c2c(NC)nc(-c3ccc(SC)cc3)nc2SC)cc1` [Example 36]: the GI50 in data set [1] was found to be 1800 nM; in data set [2] it was 3000 nM. Further, 0.1 µM produced 26.6% inhibition in data set [3] (Conc. 0.1 μM). Also, the “IL-1β Inhibition (%)” value in data set [4] (Conc. 0.1 μM) is given as “Not active”.

Regarding `CNc1nc(-c2ccc(N(C)C)cc2)nc(SC)c1C(=O)Nc1ccc(OC)cc1` [Example 57, 2-[4-(Dimethylamino)phenyl]-4-(methylamino)-N-(4-methoxyphenyl)-6-(methylthio)pyrimidine-5-carboxamide], the GI50 in data set [1] came out at 4000 nM; in data set [2], 7000 nM.

In the case of `CSc1ccc(-c2nc(O)c(C(=O)Nc3ccc(C)c(C)c3)c(SC)n2)cc1` [Example 2, 4-Hydroxy-N-(3,4-dimethylphenyl)-6-(methylthio)-2-[4-(methylthio)phenyl]pyrimidine-5-carboxamide], the melting point is 303 to 305 °C.

With `CSc1ccc(-c2nc(O)c(C(=O)Nc3ccc(C)cc3)c(SC)n2)cc1` [Example 1, 4-Hydroxy-N-(4-methylphenyl)-6-(methylthio)-2-[4-(methylthio)phenyl]pyrimidine-5-carboxamide], the melting point lay in the range of 302 to 305 °C.

For `CCOc1ccc(NC(=O)c2c(NC)nc(-c3ccc(SC)cc3)nc2SC)cc1` [Example 40, N-(4-Ethoxyphenyl)-4-(methylamino)-6-(methylthio)-2-[4-(methylthio)phenyl]pyrimidine-5-carboxamide], the 50% growth inhibitory concentration (GI50) came to 100 nM in data set [1], 500 nM in data set [2] and 2000 nM in data set [5]. For the same compound, at 10 µM the inhibition in data set [3] was 61.5%. Further, in data set [4] (Conc. 10 μM), the “IL-1β Inhibition (%)” value is recorded as “Not active”.

`CNc1nc(-c2ccc(SC)cc2)nc(SC)c1C(=O)Nc1ccc(OC)cc1` [Example 20, 4-(Methylamino)-N-(4-methoxyphenyl)-6-(methylthio)-2-[4-(methylthio)phenyl]pyrimidine-5-carboxamide] had a GI50 in data set [2] of 3200 nM.

As for `CNc1nc(-c2ccncc2)nc(SC)c1C(=O)Nc1ccc(F)cc1` [Example 18, N-(4-Fluorophenyl)-4-(methylamino)-6-(methylthio)-2-pyridin-4-ylpyrimidine-5-carboxamide], the values for the GI50 in data set [2] and in data set [5] were 2000 nM and 1200 nM, respectively.

Consider `CCc1ccc(NC(=O)c2c(NC)nc(-c3ccncc3)nc2SC)cc1` [Example 21, N-(4-Ethylphenyl)-4-(methylamino)-6-(methylthio)-2-pyridin-4-ylpyrimidine-5-carboxamide], for which the GI50 in data set [2] came to 400 nM; in data set [5], 9500 nM.

In data set [6], `CCc1ccc(NC(=O)c2c(NC)nc(-c3ccc(S(N)(=O)=O)cc3)nc2SC)cc1` [Example 17, 2-[4-(Aminosulfonyl)phenyl]-N-(4-ethylphenyl)-4-(methylamino)-6-(methylthio)pyrimidine-5-carboxamide] came in with an inhibition at 0.1 µM of 30.1%.

On to `CSc1nc(-c2ccncc2)nc(NCCO)c1C(=O)Nc1ccc(Br)cc1` [Example 46, N-(4-Bromophenyl)-4-[(2-hydroxyethyl)amino]-6-(methylthio)-2-pyridin-4-ylpyrimidine-5-carboxamide], for which the GI50 in data set [1] and in data set [2] was 200 nM in each case.

In the case of `CNc1nc(-c2cccnc2)nc(SC)c1C(=O)Nc1ccc(OC)cc1.O=P(O)(O)O` [Example 59, N-(4-Methoxyphenyl)-4-(methylamino)-6-(methylthio)-2-pyridin-3-ylpyrimidine-5-carboxamide orthophosphoric acid salt], the melting point lay in the range of 222 to 225 °C.

Turning to `CSc1ccc(-c2nc(NCCO)c(C(=O)Nc3ccc(C)c(C)c3)c(SC)n2)cc1` [Example 32, N-(3,4-Dimethylphenyl)-4-[(2-hydroxyethyl)amino]-6-(methylthio)-2-[4-(methylthio)phenyl]pyrimidine-5-carboxamide], the GI50 in data set [1] was 3000 nM; in data set [5], 4000 nM.

Regarding `CSc1ccc(-c2nc(NN)c(C(=O)Nc3ccc(C)c(C)c3)c(SC)n2)cc1` [Example 48, N-(3,4-Dimethylphenyl)-4-hydrazino-6-(methylthio)-2-[4-(methylthio)phenyl]pyrimidine-5-carboxamide], the values for the GI50 in data set [1], in data set [2] and in data set [5] were 3000 nM, 5000 nM and 2500 nM, respectively.

Consider `CNc1nc(-c2cccnc2)nc(NC)c1C(=O)Nc1ccc(C)c(C)c1` [Example 7, N-(3,4-Dimethylphenyl)-4,6-bis(methylamino)-2-pyridin-3-ylpyrimidine-5-carboxamide], for which the melting point lay within 285 to 286 °C. The inhibition at 10 µM in data set [3] was 53.8%. Further, the “IL-1β Inhibition (%)” value in data set [4] (Conc. 10 μM) was “Not active”. Moreover, the inhibition at 0.1 µM in data set [6] amounted to 30.4%.

What is called GI50 is the concentration that inhibits growth by half. A higher GI50 goes with less potent growth inhibition. What is called inhibition is the percentage by which the read-out fell short of the control. As usually defined, the melting point is the temperature of the solid-liquid transition.
